Literature values as cited in patent US8053472B2, “Use of the acetyl L-carnitine in association with the biotin for the treatment of patients with type 2 insulin-resistant diabetes mellitus” (Sigma-Tau Industrie Farmaceutiche Riunite S.p.A., priority 2001, dated 2011).

Test system: hypertriglyceridemic rats with noninsulin-dependent diabetes mellitus
Details: high doses of biotin added to the diet

In the case of O=C(O)CCCC[C@@H]1SC[C@@H]2NC(=O)N[C@@H]21 [biotin], the “altered tolerance to glucose” value is listed as “improves”.
